Results from US9737514B2, “Methods and compositions for the treatment of proliferative vascular disorders” (Children's Medical Center Corporation, priority 2011, dated 2017).

Columns and labels:
HemSCs [1] = conditions: cited from earlier work
HemSC = assay: Calcium influx assay by fluorescence microscopy; assay type: cell-based, human
Procedure: FIG. 10B depicts graphs of the effect of nifedipine on spontaneous Ca^2+ oscillations in HemSC treated with Rapamycin or DMSO for 6 days. Each line indicates the whole-cell Ca^2+ changes in an individual cell.
To test for functional features of SMCs, calcium influx in HemSC treated with Rapamycin or DMSO for six days was analyzed.
To monitor cellular calcium influxes, HemSC treated with Rapamycin (20 ng/ml) or DMSO for six days were labeled with a single wavelength calcium dye, Fluo-4 (1 Molecular Probes), by incubation in 5% CO2 at 37° C. for 20 min. […] Fluorescence intensity at a single wavelength (488 nm excitation) over time was followed using a Nikon Eclipse TE-2000-E Fluorescence microscope equipped with a 1000 W High Pressure Mercury Burner (Olympus Optical Company). Alterations in intracellular calcium were quantified by measuring changes in fluorescence intensity in a region of interest drawn over the entire cell including the nucleus. Background fluorescence was subtracted from fluorescence values at each time point. Results are presented as F/Fo, where F is the average fluorescence intensity in the region of interest (ROI) at each time point during time lapse imaging, and Fo is the fluorescence intensity in the ROI at time=0. […]

HemSCs [2] = assay: Adipogenic differentiation of HemSCs; assay type: cell-based, human; conditions: adipogenic differentiation protocol
Procedure: (§6) Whether the multi-lineage differentiation of HemSCs could be altered by Rapamycin was assayed.
(§7) Differentiation assays towards endothelial cells and adipocytes were done as reported (Khan et al., 2008).

HemSCs [3] = assay: Pro-angiogenic cytokine expression (antibody array, ELISA, qPCR); assay type: cell-based, human
Procedure: To investigate whether corticosteroids and Rapamycin share common mechanisms for suppressing HemSCs-mediated vascularization, the effect of Rapamycin on expression of a panel of 43 pro-angiogenic proteins was evaluated.
Angiogenic Cytokine Antibody Array. Conditioned media from HemSCs and HemECs, treated or untreated with dexamethasone or Rapamycin, were analyzed for protein expression using RayBio® Human Angiogenesis Antibody Array C Series 1000 (RayBiotech); according to the manufacturer's instructions. Blots were analyzed by with image J software (NIH).
(§8) An enzyme-linked immunoassay (ELISA) was performed using Quantikine Human VEGF and PLGF (R&D Systems). […]

[4] = tested on: normal human dermal fibroblasts (NHDF); assay: NHDF proliferation dose-response; assay type: cell-based; conditions: FIG. 1A
Procedure: (§1) FIG. 1A depicts dose-response curves of HemSCs (squares), NHDF (triangles), and BM-MSCs (circles) treated with Rapamycin. Error bars denote standard deviation (SD) (n=32). FIG. 1B depicts a graph of the quantification of PCNA-positive cells in HemSCs treated with Rapamycin. Error bars denote SD (n=8). *P<0.05 compared with the non-treated group. FIG. 1C depicts the results of a Western blot for phospho4EBP-1(565) and total 4EBP-1 in HemSCs serum-starved for 24 hours, pretreated with vehicle alone (“0”) or rapamycin for 20 minutes and then stimulated with media containing serum and growth factors for 30 minutes. FIG. 1D depicts a graph of the bands in FIG. 1C quantified using ImageJ; normalized to β-actin.
(§2) Proliferating cell nuclear antigen (PCNA) served as an additional measure of proliferation (Prelich et al., 1987) (Hall and Levison, 1990).

cbEPCs [5] = assay: Two cell model of IH with cbEPCs pre-treated in vitro; assay type: in vivo, nude mice
HemSCs [6] = assay: Clonogenic assay (self-renewal); assay type: cell-based, human; conditions: pre-treatment 20 ng/ml 4 days, colonies at 9 days
Procedure: To test self-renewal capacity of HemSCs, a clonogenic assay was performed (Ingram et al., 2004).
HemSCs were incubated with Rapamycin 20 ng/ml or DMSO, as a control, for 4 days. Following washout of the drug, cells were serially diluted to 8 cells per ml and plated in 384 well plates, 40 μl/well. Medium was replaced every 48 hours. At day 9, cells were fixed and stained with Hoechst. Following image capture by automated fluorescence microscopy, colony formation and the number of cells/colony were determined by quantifying the number of wells with Hoechst-stained nuclei and the number of Hoechst-stained nuclei/well using MetaXpress Software.

HemSCs [7] = assay: Two cell model of IH with HemSCs pre-treated in vitro; assay type: in vivo, nude mice
Excerpt: To test whether or not HemSCs are a target of Rapamycin, versus the cbEPCs or a murine host cell, HemSCs were pre-treated with Rapamycin for three days in vitro, the drug was washing out, and the Rapamycin-treated or control HemSCs were resuspended with cbEPCs in Matrigel, and injected into mice.
(§3) To do this, the anti-proliferative drug Roscovitine, a purine analogue andcyclin-dependent kinase inhibitor (De Azevedo et al., 1997) (Meijer et al., 1997) was used. First, the effect of Roscovitine on HemSCs proliferation was titrated in vitro. […] Next, HemSCs were pre-treated in vitro for three days with either Roscovitine or Rapamycin, the drugs washed out, and the cells then injected with untreated cbEPC into mice.
(§4) Nude/Nude mice were purchased from Massachusetts General Hospital animal facility. Procedures were approved by the Animal Care and Use Committees of the Children's Hospital, Boston. Anesthesia was induced with 4% isofluorane and maintenance in 1-3% oxygen. Mice were anesthetized once for up to 5 min. The one cell and two cell models of IH were performed as reported (Greenberger et al., 2010; Khan et al., 2008) and microvessel density (MVD) was assessed by counting red blood cell-filled lumens (Melero-Martin et al., 2007). Values reported for each experimental condition correspond to the average MVD value±standard error of the mean (SEM) obtained from all the individual animals.

cbEPCs [8] = assay: Endothelial proliferation assay; assay type: cell-based, human; conditions: 20 ng/ml, 48 hours, not rescued by VEGF-A or PLGF-1
Procedure: FIG. 11A depicts a graph of cell number of cbEPCs treated for 48 hours with Rapamycin or (20 ng/ml) DMSO as a control, in the presence of either VEGF-A (37.5 ng/ml), PLGF-1 (37.5 ng/ml) or the combination. Cell number was quantified by automatic microscopy and software analysis. Bars denote the standard deviation with n=32 for each treatment combination. FIG. 11B depicts a graph of cell number of cbEPCs treated for 48 hours with Everolimus (20 ng/ml), Temsirolimus (200 ng/ml) or DMSO as a control, in the presence of VEGF-A (37.5 ng/ml) or PLGF-1 (37.5 ng/ml). Cell number was quantified by automatic microscopy and software analysis. Bars denote the standard deviation with n=32 for each treatment combination.
To study this effect, Rapamycin was tested on cbEPCs.
cbEPCs at passages 6-10 were plated in 384-well plates at 1000 cells per well. 24 hours later, media was removed and replaced with EBM-2 5% fetal bovine serum media containing the recombinant human proteins VEGF-A at 37.5 ng/ml (R&D Systems) or PlGF-1 at 37.5 ng/ml (R&D Systems), and the drug compounds Rapamycin (20 ng/ml), Everolimus 20 ng/ml or Temsirolimus 200 ng/ml in replicates of 32. 48 hours later, cells were fixed and stained with Hoechst (Invitrogen). Following image capture by automated fluorescence microscopy, cell number was determined using MetaXpress Software.

HemSCs [9] = assay: Viability / cell morphology by phalloidin staining; assay type: cell-based, human
HemSCs [10] = assay: HemSC proliferation dose-response; assay type: cell-based, human
Procedure: as §1, §2, §3

[11] = tested on: human ECs, including HemECs; assay: PLGF-1 expression in endothelial cells (ELISA, RT-PCR); assay type: cell-based; conditions: 48 hours of incubation
Procedure: FIG. 11C depicts a graph of quantitative ELISA analysis of PLGF-1 protein secreted from HemECs and Human Dermal Microvascular Endothelial Cells (HDMECs) following 48 hours of incubation with Rapamycin. FIG. 11D depicts a graph of the dose-response of Rapamycin on PLGF-1 mRNA expression in HemECs. Quantitative RT-PCR analyses of HemECs PLGF-1 expression following 48 hours of incubation with Rapamycin at the indicated concentration. FIG. 11E depicts a graph of the dose-response of Rapamycin on PLGF-1 protein secretion from HemECs. PLGF-1 was measured by quantitative ELISA analysis following 48 hours of incubation with Rapamycin at the indicated concentration.
as §8

[12] = tested on: HemSCs and cbEPCs in Matrigel; assay: Regression of pre-existing vessels, contrast-enhanced micro-ultrasonic imaging of Matrigel implants; assay type: in vivo, nude mice; conditions: 2 mg/kg i.p.
Procedure: To test this, contrast-enhanced micro-ultrasonic imaging was used to measure blood flow in the Matrigel implants. […] For the experiment, mice were injected with cells and imaged at day 7 to record baseline blood flow in the implants. Mice were then randomized into two groups: Rapamycin, 2 mg/kg by i.p. injection or vehicle alone by i.p. injection. At day 17, follow-up imaging was performed.
Contrast-enhanced high resolution ultrasonic (US) imaging of the blood flow in Matrigel implants was performed using a Vevo 770 System with a 40-MHz RMV scanhead (Visual Sonics) (Loveless et al., 2009; Olive et al., 2009). MicroMarker non-targeting contrast agent (Visualsonics) was prepared according to manufacturer's guidelines. For imaging, mice were anesthetized with 2% isofluorane, coupling gel was applied to cover the entire region of interest, and 2-D B-mode scout images established the central slice of the Matrigel. The transducer was placed such that the 6 mm focal spot converged at the center of the Matrigel. Baseline images were acquired in Contrast Mode, and a 50 μL bolus of contrast agent suspension was administered via tail vein catheter during acquisition of a second contrast video.

HemSCs in Matrigel = assay: One cell model of IH (HemSC implanted alone); assay type: in vivo, nude mice; conditions: i.p. on days 1-6, explanted day 7
Procedure: (§5) Next, the effect of systemic Rapamycin was tested in a two cell model of IH described previously (Greenberger et al., 2010). HemSCs and cbEPCs were mixed with Matrigel and injected subcutaneously in nude mice. This two-cell model has advantages over injecting HemSC alone: first it is more robust and thus more sensitive for detecting dose-response activity. Second, it allows one to test separately the effect of rapamycin on the HemSC versus cbEPCs, which are primary ECs isolated from cord blood that serve as prototypic young ECs. Rapamycin was administered daily by intra-peritoneal injection.
as §4

mTOR = assay: Western blot of phosphorylated 4EBP1 in HemSCs; assay type: cell-based, human; conditions: HemSCs serum-starved 24 hours, pretreated 20 minutes
Procedure: as §1

HemSCs [13] = assay: SMC/pericyte marker expression in HemSCs (qPCR, Western blot); assay type: cell-based, human
HemSCs [14] = assay: Endothelial differentiation of HemSCs; assay type: cell-based, human; conditions: in vitro
Procedure: as §6, §7

BM-MSCs = assay: BM-MSC proliferation dose-response; assay type: cell-based, human; conditions: FIG. 1A
Procedure: as §1, §2

HemSCs [15] = assay: PCNA immunostaining of HemSCs; assay type: cell-based, human; conditions: 10 ng/ml
Procedure: as §2
Human-specific CD31 (DakoCytomation) immunostaining was performed as described (MeleroMartin et al., 2007), (Roelofs et al., 2003). PhosphoAKT/VE-cadherin double immunofluorescence was done on cryosections. Slides were fixed with 8% paraformaldehyde, blocked with 1% BSA and incubated with anti-VE-Cadherin (goat, Santa Cruz Biotechnology, Santa Cruz, Calif.) 1:100 for one hour, followed by anti-goat Texas-Red (Vector Labs, Burlingame, Calif.) 1:200. Following an additional blocking step (1% BSA, 0.1% Triton-X), AntipAKT (mouse, Cell Signaling, Danvers, Mass.) 1:100, was applied over night in 4° C. and next, anti-mouse Alexa Fluor 488 (Invitrogen) 1:300 for one hour. PCNA immunostaining was done using anti-PCNA 1:500 (mouse, Santa Cruz Biotechnology, Santa-Cruz, Calif.). For immunostaining of paraffing embedded Matrigel explants, antigen retrieval was done by citrate buffer. Sections were blocked by 5% horse serum and incubated with a secondary anti-mouse horseradish peroxidase (HRP) conjugate at 1:300 (Vector Labs, Burlingame, Calif.). For immunofluorescence, cells were fixed with methanol, blocked by 1% BSA.

[16] = tested on: HemSCs and cbEPCs in Matrigel; assay: Two cell model of IH (HemSCs and cbEPCs in Matrigel), systemic drug; assay type: in vivo, nude mice; conditions: daily intra-peritoneal injection; for vascularization of Matrigel implants / formation of blood vessels (MVD): compared with vehicle
Procedure: as §5
To test this concept, mice were given i.p. injections of low dose of dexamethasone (0.25 mg/kg), low dose of Rapamycin (0.25 mg/kg) or the combination of both.
as §4
Rapamycin, Everolimus and Temsirolimus were purchased from LC Laboratories. Drugs were dissolved in DMSO followed by solvent solution (5% polyethylene glycol, 0.2% carboxymethylcellulose and 0.25% Tween-80 in H2O). Aliquots were kept in −20° C. Mice were given daily intra-peritoneal (i.p.) injections containing 200 μl of drug or the vehicle alone.

For `C[C@@H]1C[C@H]2[C@@H]3CCC4=CC(=O)C=C[C@]4(C)[C@@]3(F)[C@@H](O)C[C@]2(C)[C@@]1(O)C(=O)CO` [Dexamethasone, dexamethasone], the “VEGF-A, IL-6, MMP-1, MCP-1 and UPAR expression” value (HemSCs [1]) is listed as “suppressed”.

In the case of `COC(=O)C1=C(C)NC(C)=C(C(=O)OC)C1c1ccccc1[N+](=O)[O-]` [Nifedipine, nifedipine], the “spontaneous Ca2+ oscillations” value (HemSC; 10 uM, Rapamycin-treated HemSC) is reported as “cessation of oscillations”.

For `CO[C@H]1C[C@@H]2CC[C@@H](C)[C@@](O)(O2)C(=O)C(=O)N2CCCC[C@H]2C(=O)O[C@H]([C@H](C)C[C@@H]2CC[C@@H](O)[C@H](OC)C2)CC(=O)[C@H](C)/C=C(\C)[C@@H](O)[C@@H](OC)C(=O)[C@H](C)C[C@H](C)/C=C/C=C/C=C/1C` [Rapamycin, rapamycin], the “expression of adipogenic markers LPL, C/EBP-α and accumulation of lipid droplets” value (HemSCs [2]) was “blocked expression”, the “expression of VEGF-A by HemSCs at the mRNA or protein level” value (HemSCs [3]) was “did not block” and the “angiogenin and PLGF-1 expression” value (HemSCs [3]; in HemSCs and cbEPCs) was “downregulated”. The “sensitivity of NHDF proliferation compared with HemSCs” value [4] was “less sensitive”, the “blood vessel formation after pre-treatment of cbEPCs” value (cbEPCs [5]) was “no effect” and the “appearance of colonies with >500 cells” value (HemSCs [6]) was “abolished”. For the same molecule, the “decrease in the number of HemSC colonies formed” value (HemSCs [6]) was 60%, the “inhibition of microvessel density” value (HemSCs [7]; HemSCs pre-treated in vitro three days, washed out, injected with untreated cbEPC (Roscovitine comparison experiment)) was 60% and the “inhibition of blood vessel formation” value (HemSCs [7]; HemSCs pre-treated three days in vitro, drug washed out, injected with cbEPCs) was 80%. The “functional features of SMCs (calcium influx)” value (HemSC; HemSC treated 20 ng/ml six days) was “express L-type voltage gated channels”, the “growth of cbEPCs” value (cbEPCs [8]) was “suppressed growth” and the “viability (normal cell morphology, phalloidin staining)” value (HemSCs [9]) was “not affected”. The “inhibition of HemSCs proliferation” value (HemSCs [10]; concentrations of 1 ng/ml and higher) was roughly 40%, the “endogenous PLGF-1” value [11] was “dose-dependent suppression” and the “vascularization of Matrigel implants macroscopically and by histological analysis” value [12] was “less vascularized”. For the same molecule, the “blood flow in the implant (contrast intensity)” value ([12]; day 7 to day 17) was “reduced blood flow”, the “vessel formation, HemSC implanted alone” value (HemSCs in Matrigel) was “inhibited vessel formation” and the “constitutive and serum/growth factor stimulated levels of phosphorylated 4EBP1” value (mTOR) was “dose-dependent decrease”. For the same molecule, the “expression levels of calponin, NG2 and PDGF-Rβ” value (HemSCs [13]; FIG. 10A) was “unchanged”, the “SM22-alpha and αSMA at the protein level” value (HemSCs [13]; incubation four days) was “increased” and the “smMHC and SM22-alpha transcript levels” value (HemSCs [13]; incubation four days) was “upregulation”. For the same molecule, the “ability of HemSCs to differentiate towards an endothelial phenotype” value (HemSCs [14]) was “No effect”, the “sensitivity of BM-MSCs proliferation compared with HemSCs” value (BM-MSCs) was “less sensitive” and the “suppression of percentage of PCNA-positive HemSCs” value (HemSCs [15]) was 80%. For the same molecule, the “de novo formation of human CD31-positive blood vessels” value ([16]; anti-human CD31 staining) was “inhibited the de novo formation” and the “vascularization of Matrigel implants / formation of blood vessels (MVD)” value [16] was “dose-dependent inhibition”.

With `CC[C@H](CO)Nc1nc(NCc2ccccc2)c2ncn(C(C)C)c2n1` [Roscovitine] the “inhibition of microvessel density (in words)” value (HemSCs [7]; HemSCs pre-treated in vitro three days, washed out, injected with untreated cbEPC) was “did not” and the inhibition at 3.125 µM (HemSCs [10]; Homo sapiens, read-out: inhibition of HemSCs proliferation) was 55%.

With `CO[C@H]1C[C@@H]2CC[C@@H](C)[C@@](O)(O2)C(=O)C(=O)N2CCCC[C@H]2C(=O)O[C@H]([C@H](C)C[C@@H]2CC[C@@H](OCCO)[C@H](OC)C2)CC(=O)[C@H](C)/C=C(\C)[C@@H](O)[C@@H](OC)C(=O)[C@H](C)C[C@H](C)/C=C/C=C/C=C/1C` [everolimus] the “vascularization of Matrigel implants / formation of blood vessels (MVD)” value [16] was “significantly inhibited”.

In the case of `CO[C@H]1C[C@@H]2CC[C@@H](C)[C@@](O)(O2)C(=O)C(=O)N2CCCC[C@H]2C(=O)O[C@H]([C@H](C)C[C@@H]2CC[C@@H](OC(=O)C(C)(CO)CO)[C@H](OC)C2)CC(=O)[C@H](C)/C=C(\C)[C@@H](O)[C@@H](OC)C(=O)[C@H](C)C[C@H](C)/C=C/C=C/C=C/1C` [temsirolimus], the “vascularization of Matrigel implants / formation of blood vessels (MVD)” value [16] is reported as “significantly inhibited”.
